According to US5066676A, “Sulfonamido derivative inhibiting the aldose reductase enzyme system and pharmaceutical compositions containing them” (Laboratori Baldacci SpA, priority 1987, dated 1991):
pIC50: −log10 of the molar value.

Assays:
Acute toxicity: rat = conditions: in vivo, rat (Wistar), 20 ml/kg, read-out: % Death
Source text: (§1) The toxicity tests after only one administration have been carried out on two animal species (mice and rats), using two administration routes (os, iv).
(§2) The compounds have been administered by gastric probe, suspended in Methocell or by injection (iv) dissolved in physiological solution with the addition of sodium bicarbonate.
(§3) The animals have been kept under observation for 15 days. The controls have been carried out several times in the first days and twice a day in the next days. In the table 1 the conditions used and the results obtained are reported.
Wistar rats, of both sexes have been used of average weight of 120 g, fasted after 18 hours and with water at libitum. The conditions of stalling and the administration ways were the same as those reported in the preceeding paragraph (acute toxicity: mouse).

aldose reductase = biological target: T1, aldose reductase (Bos taurus, UniProt P16116); assay: In vitro inhibition of aldose reductase activity of raw extracts from bovine crystalline lens; type: biochemical; conditions: for inhibiting action of the aldose reductase activity (in words): bovine lens extract; for pIC50: glyceraldehyde substrate, NADPH, pH 6.8, 37° C., read-out: IC50 on the aldose reductase activity of raw extracts originating from bovine crystalline lens
T1 construct: 4 bovine crystalline lenses (8 g) are homogenized by means of Potter in ice bath; from tissue; host or cells: bovine crystalline lens
Protocol: "In vitro" tests have been carried out to evalute the inhibition of the aldose reductase activity, prepared from the extract of bovine crystalline lenses.
PREPARATION OF THE RAW EXTRACTS
4 bovine crystalline lenses (8 g) are homogenized by means of Potter in ice bath with 40 ml of 50 mM phosphate buffer, pH 6.8, containing 2-mercaptoethanol pH ([…]). After centrifugation (12.000×g -20 min-4° C.) the supernatant is brought to 40% saturation with an ammonium sulphate and centrifugated again (14.000×g). The supernatant is then brought to the 80% saturation ((NH4)2 SO4) and, after centrifugation for 20 minutes and at 14.000×g, the sedimented matter is recovered and suspended in 7 ml of phosphate buffer. The enzymatic preparation is dialyzed by ultrafiltration with AMICON ultrafiltration cell.
DOSAGE OF THE ENZYMATIC ACTIVITY
The reference cuvette contains all the several substances apart from the substrate.

Acute toxicity: mice = conditions: in vivo, mouse (Swiss), read-out: % Death
Protocol: as §1
For these tests Swiss mice have been used, of both sexes, having average weight 20 g, fasted after 18 hours and administered with water ad libitum. The animals were maintained under standard environment conditions (temperature: 20°-22° C. and moisture 50%).
as §2, §3

Compound	mortality at 360 h (Acute toxicity: rat; po, 5000 mg/kg/os)	mortality at 360 h (Acute toxicity: rat; 500 mg/kg/iv)	mortality at 360 h (Acute toxicity: rat; 400 (unit and route not given))	inhibiting action of the aldose reductase activity (in words) (aldose reductase)	pIC50 (aldose reductase)	mortality at 360 h (Acute toxicity: mice; po, 5000 mg/kg/os)	mortality at 360 h (Acute toxicity: mice; 400 mg/kg/iv)
CN(CC(=O)O)S(=O)(=O)c1ccc2oc3ccc(F)cc3c(=O)c2c1 [ARI 8, 7-fluoro-2-(N-methyl-N-carboxymethyl)sulfamoylxanthone]	30%	40%	0%	higher activity, with respect to the of sorbinil and of ARI 1	6.00	10%	0%
CN(CC(=O)O)S(=O)(=O)c1ccc2oc3ccc(S(=O)(=O)N(C)CC(=O)O)cc3c(=O)c2c1 [ARI 9, 2,7-bis (N-methyl-N-carboxymethyl) sulfamoylxanthone]	–	–	–	higher activity, with respect to the of sorbinil and of ARI 1	6.00	–	–
